# Reference: patent publication US20260028365A1 (BIOGEN MA INC., priority 2022, published 2026)
# Biological target: JH2 domain of human Tyk2 (Homo sapiens (Human), UniProt P29597)
# Assay: JH2 Biochemical Assay (TR-FRET probe displacement)
# Type: binding
# Settings: JH2 domain of human Tyk2, TR-FRET probe displacement
# Description: The inhibitory potency of compounds of the disclosure against the kinase activity of recombinantly generated JH2 domain of human Tyk2 was evaluated in a plate-based assay using a TR-FRET assay platform. Briefly, 2 nM of recombinant JH2 domain [10×His-tagged TYK2 JH2 domain (amino acid 575-876)] was combined with 2 nM probe ((S)-6-amino-9-(2-carboxy-4-((1-(3-(8-methyl-5-(methylamino)-8H-imidazo[4,5-d]thiazolo[5,4-b]pyridin-2-yl)phenyl)ethyl)carbamoyl)phenyl)-3-iminio-5-sulfo-3H-xanthene-4-sulfonate), 0.1 nM Tb-labeled anti-His antibody, and compounds of disclosure for 60 minutes. Compounds are tested at either 10 μM or 1 μM top concentration, 10 points of 3-fold dilution. The TR-FRET signal inversely correlates to the amount of probe displaced by compounds and signal was calculated by taking the ratio of fluorescence at 520 nm and 495 nm. The data was normalized and the percent activity versus log concentration of compound was fitted with a 4-parameter logistic model to generate IC50 curves.
# JH2 domain of human Tyk2, sequence (P29597 575-876): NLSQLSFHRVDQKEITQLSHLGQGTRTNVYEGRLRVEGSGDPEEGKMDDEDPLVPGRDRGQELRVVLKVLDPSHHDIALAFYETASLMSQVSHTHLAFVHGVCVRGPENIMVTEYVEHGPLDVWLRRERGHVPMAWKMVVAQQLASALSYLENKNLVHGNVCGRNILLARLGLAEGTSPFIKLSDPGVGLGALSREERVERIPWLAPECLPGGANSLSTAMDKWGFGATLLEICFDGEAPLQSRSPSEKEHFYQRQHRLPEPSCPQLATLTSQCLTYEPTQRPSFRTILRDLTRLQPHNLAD
row,Structure (SMILES),IC50
1,"COc1cnc(NC(C)=O)cc1Nc1cc(-c2cc(C)c3nc(C)nn3c2)nc(C(C)(F)F)n1 [Example 397, N-(4-((2-(1,1-difluoroethyl)-6-(2,8-dimethyl-[1,2,4]triazolo[1,5-a]pyridin-6-yl)pyrimidin-4-yl)amino)-5-methoxypyridin-2-yl)acetamide]",≤ 10 nM
2,"COc1cnc(NC(C)=O)cc1Nc1cc(-c2cc(C)c3nn(C)cc3c2)nc(C(C)(F)F)n1 [Example 400, N-(4-((2-(1,1-difluoroethyl)-6-(2,7-dimethyl-2H-indazol-5-yl)pyrimidin-4-yl)amino)-5-methoxypyridin-2-yl)acetamide]",≤ 10 nM
3,"COc1cnc(NC(C)=O)cc1Nc1cc(-c2cc(C)c3nc(C)cn3c2)nc(C(C)(F)F)n1 [Example 403, N-(4-((2-(1,1-difluoroethyl)-6-(2,8-dimethylimidazo[1,2-a]pyridin-6-yl)pyrimidin-4-yl)amino)-5-methoxypyridin-2-yl)acetamide]",≤ 10 nM
4,"CC(=O)Nc1cc(Nc2cc(C)nc(C(C)(F)F)n2)c(OCC2(C)CCCCO2)cn1 (centres unmarked) [Example 435, N-(4-((2-(1,1-difluoroethyl)-6-methylpyrimidin-4-yl)amino)-5-((2-methyltetrahydro-2H-pyran-2-yl)methoxy)pyridin-2-yl)acetamide]",≤ 10 nM
5,"COc1cnc(NC(C)=O)cc1Nc1cc(OC2CC2)nc(C(F)(F)F)n1 [Example 437, N-(4-((6-cyclopropoxy-2-(trifluoromethyl)pyrimidin-4-yl)amino)-5-methoxypyridin-2-yl)acetamide]",10 to 100 nM
6,"COc1cc(C(F)(F)F)nc(Nc2cc(NC(C)=O)ncc2OC)n1 [Example 438, N-(5-methoxy-4-((4-methoxy-6-(trifluoromethyl)pyrimidin-2-yl)amino)pyridin-2-yl)acetamide]",100 to 1000 nM
7,"COc1nc(C)cc(Nc2cc(NC(C)=O)ncc2OC)n1 [Example 452, N-(5-methoxy-4-((2-methoxy-6-methylpyrimidin-4-yl)amino)pyridin-2-yl)acetamide]",10 to 100 nM
8,"COCC12CC(c3nc(C)cc(Nc4cc(NC(C)=O)ncc4-c4ccn(C)n4)n3)(CO1)C2 [Example 561, N-(4-((2-(1-(methoxymethyl)-2-oxabicyclo[2.1.1]hexan-4-yl)-6-methylpyrimidin-4-yl)amino)-5-(1-methyl-1H-pyrazol-3-yl)pyridin-2-yl)acetamide]",10 to 100 nM
9,"CC(=O)Nc1cc(Nc2cc(C)nc(C(C)(F)F)n2)c(-c2nc(C)ns2)cn1 [Example 618, N-(4-((2-(1,1-difluoroethyl)-6-methylpyrimidin-4-yl)amino)-5-(3-methyl-1,2,4-thiadiazol-5-yl)pyridin-2-yl)acetamide]",≤ 10 nM
10,"COc1cc(C)nc(-c2cnc(NC(C)=O)cc2Nc2cc(C)nc(C(C)(F)F)n2)n1 [Example 621, N-(4-((2-(1,1-difluoroethyl)-6-methylpyrimidin-4-yl)amino)-5-(4-methoxy-6-methylpyrimidin-2-yl)pyridin-2-yl)acetamide]",10 to 100 nM
11,"COc1ccc(-c2cnc(NC(C)=O)cc2Nc2cc(C)nc(C(C)(F)F)n2)nc1F [Example 622, N-(4′-((2-(1,1-difluoroethyl)-6-methylpyrimidin-4-yl)amino)-6-fluorO5-methoxy-[2,3′-bipyridin]-6′-yl)acetamide]",≤ 10 nM
12,"CC(=O)Nc1cc(Nc2cc(C)nc(C(C)(F)F)n2)c(-c2cc(F)ccn2)cn1 [Example 624, N-(4′-((2-(1,1-difluoroethyl)-6-methylpyrimidin-4-yl)amino)-4-fluorO[2,3′-bipyridin]-6′-yl)acetamide]",≤ 10 nM
13,"CC(=O)Nc1cc(Nc2ccnc(C(C)(F)F)n2)c(-c2csc(C(C)(C)F)n2)cn1 [Example 713, N-(4-((2-(1,1-difluoroethyl)pyrimidin-4-yl)amino)-5-(2-(2-fluoropropan-2-yl)thiazol-4-yl)pyridin-2-yl)acetamide]",≤ 10 nM
14,"CC(=O)Nc1cc(Nc2ccnc(C(C)(F)F)n2)c(-c2nnc(C3CC3)o2)cn1 [Example 717, N-(5-(5-cyclopropyl-1,3,4-oxadiazol-2-yl)-4-((2-(1,1-difluoroethyl)pyrimidin-4-yl)amino)pyridin-2-yl)acetamide]",≤ 10 nM
15,"CC(=O)Nc1cc(Nc2cc(C)nc(C(C)(F)F)n2)c(N(C)C)cn1 [Example 725, N-(4-((2-(1,1-difluoroethyl)-6-methylpyrimidin-4-yl)amino)-5-(dimethylamino)pyridin-2-yl)acetamide]",100 to 1000 nM

# Same assay, conditions: TR-FRET probe displacement, JH2 domain of human Tyk2
row,Structure (SMILES),IC50
1,"CCOc1cnc(NC(=O)C2CC2)cc1Nc1cc(C)nc(C(C)(F)F)n1 [Example 28, N-(4-((2-(1,1-difluoroethyl)-6-methylpyrimidin-4-yl)amino)-5-ethoxypyridin-2-yl)cyclopropanecarboxamide]",10 to 100 nM
2,"CCOc1cnc(NC(C)=O)cc1Nc1cc(C(C)(F)F)ncn1 [Example 33, N-(4-((6-(1,1-difluoroethyl)pyrimidin-4-yl)amino)-5-ethoxypyridin-2-yl)acetamide]",100 to 1000 nM
3,"CC(=O)Nc1cc(Nc2cc(C)nc(C(C)(F)F)n2)c(C(C)C)cn1 [Example 44, N-(4-((2-(1,1-difluoroethyl)-6-methylpyrimidin-4-yl)amino)-5-isopropylpyridin-2-yl)acetamide]",10 to 100 nM
4,"CCOc1cnc(NC(C)=O)cc1N(C)c1cc(C)nc(C(C)(F)F)n1 [Example 54, N-(4-((2-(1,1-difluoroethyl)-6-methylpyrimidin-4-yl)(methyl)amino)-5-ethoxypyridin-2-yl)acetamide]",≥ 1000 nM
5,"CC(=O)Nc1cc(Nc2cc(C)nc(C(C)(F)F)n2)c(CCCN(C)C)cn1 [Example 151, N-(4-((2-(1,1-difluoroethyl)-6-methylpyrimidin-4-yl)amino)-5-(3-(dimethylamino)propyl)pyridin-2-yl)acetamide]",100 to 1000 nM
6,"COCCCc1cnc(NC(C)=O)cc1Nc1cc(C)nc(C(C)(F)F)n1 [Example 152, N-(4-((2-(1,1-difluoroethyl)-6-methylpyrimidin-4-yl)amino)-5-(3-methoxypropyl)pyridin-2-yl)acetamide]",10 to 100 nM
7,"CCc1cc(Nc2cc(NC(C)=O)ncc2-c2noc(C)n2)nc(C(C)(F)F)n1 [Example 170, N-(4-((2-(1,1-difluoroethyl)-6-ethylpyrimidin-4-yl)amino)-5-(5-methyl-1,2,4-oxadiazol-3-yl)pyridin-2-yl)acetamide]",10 to 100 nM
8,"CC(=O)Nc1cc(Nc2ccnc(C(C)(F)F)c2)c(-c2cc(C)ncn2)cn1 [Example 199, N-(4-((2-(1,1-difluoroethyl)pyridin-4-yl)amino)-5-(6-methylpyrimidin-4-yl)pyridin-2-yl)acetamide]",10 to 100 nM
9,"CCc1cc(Nc2cc(NC(C)=O)ncc2-c2ccc(OC)nn2)nc(C(C)(F)F)n1 [Example 220, N-(4-((2-(1,1-difluoroethyl)-6-ethylpyrimidin-4-yl)amino)-5-(6-methoxypyridazin-3-yl)pyridin-2-yl)acetamide]",≤ 10 nM
10,"CC(=O)Nc1cc(Nc2cc(C)nc(C(C)(F)F)n2)c(-c2cc(C(C)(C)C#N)ncn2)cn1 [Example 241, N-(5-(6-(2-cyanopropan-2-yl)pyrimidin-4-yl)-4-((2-(1,1-difluoroethyl)-6-methylpyrimidin-4-yl)amino)pyridin-2-yl)acetamide]",100 to 1000 nM
11,"CC(=O)Nc1cc(Nc2cc(C)nc(C(C)(F)F)n2)c(-c2cc(N3CCN(C)CC3)ncn2)cn1 [Example 248, N-(4-((2-(1,1-difluoroethyl)-6-methylpyrimidin-4-yl)amino)-5-(6-(4-methylpiperazin-1-yl)pyrimidin-4-yl)pyridin-2-yl)acetamide]",10 to 100 nM
12,"CC(=O)Nc1cc(Nc2cc(C)nc(C(C)(F)F)n2)c(-c2nc3c(s2)CN(CC#N)CC3)cn1 [Example 285, N-(5-(5-(cyanomethyl)-4,5,6,7-tetrahydrothiazolo[5,4-c]pyridin-2-yl)-4-((2-(1,1-difluoroethyl)-6-methylpyrimidin-4-yl)amino)pyridin-2-yl)acetamide]",≤ 10 nM
13,"CC(=O)Nc1cc(Nc2cc(C)nc(C(C)(F)F)n2)c(OCCOC2CC2)cn1 [Example 316, N-(5-(2-cyclopropoxyethoxy)-4-((2-(1,1-difluoroethyl)-6-methylpyrimidin-4-yl)amino)pyridin-2-yl)acetamide]",≤ 10 nM
14,"CC(=O)Nc1cc(Nc2cc(C)nc(C(C)(F)F)n2)c(OCC2(C)CCOCC2)cn1 [Example 317, N-(4-((2-(1,1-difluoroethyl)-6-methylpyrimidin-4-yl)amino)-5-((4-methyltetrahydro-2H-pyran-4-yl)methoxy)pyridin-2-yl)acetamide]",≤ 10 nM
15,"CC(=O)Nc1cc(Nc2cc(C)nc(C(C)(F)F)n2)c(OCc2ncsc2C)cn1 [Example 329, N-(4-((2-(1,1-difluoroethyl)-6-methylpyrimidin-4-yl)amino)-5-((5-methylthiazol-4-yl)methoxy)pyridin-2-yl)acetamide]",10 to 100 nM
16,"CC(=O)Nc1cc(Nc2cc(C)nc(C(C)(F)F)n2)c(OCC2(CF)CCOCC2)cn1 [Example 340, N-(4-((2-(1,1-difluoroethyl)-6-methylpyrimidin-4-yl)amino)-5-((4-(fluoromethyl)tetrahydro-2H-pyran-4-yl)methoxy)pyridin-2-yl)acetamide]",10 to 100 nM
17,"CC(=O)Nc1cc(Nc2cc(C)nc(C(C)(F)F)n2)c(OC[C@]23CC[C@](C)(CC2)CO3)cn1 [Example 347, N-(4-((2-(1,1-difluoroethyl)-6-methylpyrimidin-4-yl)amino)-5-(((1s,4s)-4-methyl-2-oxabicyclo[2.2.2]octan-1-yl)methoxy)pyridin-2-yl)acetamide]",≤ 10 nM
